In brackets after ≈: the same amount, converted by molar mass.
Experiments:
[1] = Selectivity index, ratio of CC50 for […] J774.2 cells to IC50 Leishmania infantum MCAN/ES/2001/UCM-10; assay type: toxicity; settings: J774.2 cells versus Leishmania infantum MCAN/ES/2001/UCM-10; read-out: Ratio CC50/IC50
[2] = Cytotoxicity against mouse J774.2 cells; assay type: toxicity, cell-based
Leishmania infantum = test: Antileishmanial activity against Leishmania infantum amastigotes MCAN/ES/2001/UCM-10 infected in J774.2 cells; assay type: functional, organism-based; settings: MCAN/ES/2001/UCM-10, J774.2
Trypanosoma cruzi [3] = test: Antitrypanosomal activity against Trypanosoma cruzi X10/7-Silvio; assay type: functional, organism-based
[4] = Cytotoxicity against CHO cells; assay type: toxicity, cell-based, Cricetulus griseus; settings: chinese hamster
Trypanosoma cruzi [5] = test: Antitrypanosomal activity against Trypanosoma cruzi NINOA; assay type: functional
Trypanosoma cruzi [6] = test: Antitrypanosomal activity against Trypanosoma cruzi INC-5; assay type: functional
Trypanosoma cruzi [7] = test: Antitrypanosomal activity against Trypanosoma cruzi Brener; assay type: functional, organism-based
Trypanosoma cruzi [8] = test: Antitrypanosomal activity against Trypanosoma cruzi Tulahuen; assay type: functional, organism-based
Trypanosoma cruzi [9] = test: Antitrypanosomal activity against Trypanosoma cruzi LQ; assay type: functional, organism-based
Trypanosoma cruzi [10] = test: Antitrypanosomal activity against Trypanosoma cruzi epimastigotes; assay type: functional, organism-based
Trypanosoma cruzi [11] = test: Antitrypanosomal activity against Trypanosoma cruzi epimastigotes assessed as parasite growth inhibition at 50 uM; assay type: functional; design: scale not given: the % may be the effect or the level left
[12] = Selectivity index, ratio of EC50 for Trypanosoma cruzi epimastigotes to LC50 for african green monkey Vero cells; assay type: toxicity; settings: Vero cells versus Trypanosoma cruzi epimastigotes, read-out: Selectivity Index
[13] = Cytotoxicity against african green monkey Vero cells; assay type: toxicity, cell-based; settings: chlorocebus sabaeus, read-out: LC50 (the source's name)
[14] = Selectivity index, ratio of CC50 for rat L6 cells to IC50 for Leishmania donovani; assay type: toxicity; settings: L6 cells versus Leishmania donovani, read-out: Ratio CC50/IC50
[15] = Cytotoxicity against rat L6 cells; assay type: toxicity, cell-based
Leishmania donovani [16] = test: Antileishmanial activity against Leishmania donovani axenic amastigotes; assay type: functional, organism-based
Trypanosoma cruzi [17] = test: Antitrypanosomal activity against Trypanosoma cruzi Y; assay type: functional, organism-based
Leishmania braziliensis = test: Antileishmanial activity against Leishmania braziliensis MHOM/BR/1975/M2904 infected in J774.2 cells; assay type: functional, organism-based; settings: MHOM/BR/1975/M2904, J774.2
[18] = Selectivity index, ratio of CC50 for […] J774.2 cells to IC50 Leishmania braziliensis MHOM/BR/1975/M2904; assay type: toxicity; settings: read-out: Ratio CC50/IC50
Leishmania donovani [19] = test: Antileishmanial activity against Leishmania donovani LCR-L 133 LRC infected in J774.2 cells; assay type: functional, organism-based
[20] = Selectivity index, ratio of CC50 for […] J774.2 cells to IC50 Leishmania donovani LCR-L 133 LRC; assay type: toxicity; settings: J774.2 cells versus Leishmania donovani LCR-L 133 LRC; read-out: Ratio CC50/IC50

Cn1nc(OCc2ccccc2)c2cc([N+](=O)[O-])ccc21
selectivity ratio [1]: 14.8 | CC50 [2]: 179 µM | IC50 (Leishmania infantum): 12.1 µM

O=C(Cn1cccc1[N+](=O)[O-])Nc1ccccc1
EC50 (Trypanosoma cruzi [3]): 6 µM | CC50 [4]: 262 µM

O=[N+]([O-])c1ccccc1/C=N/NS(=O)(=O)c1ccccc1
LC50 (Trypanosoma cruzi [5]): 218 µM | LC50 (Trypanosoma cruzi [6]): 15.2 µM

CC(=O)Nc1nnc(-c2ncc([N+](=O)[O-])n2C)s1
IC50 (Trypanosoma cruzi [7]): 7.44 µM | IC50 (Trypanosoma cruzi [8]): 7.46 µM | IC50 (Trypanosoma cruzi [9]): 7.44 µM

O=[N+]([O-])c1ccc(/C=N/N=c2\[nH]nc(Cl)c3ccccc23)o1
EC50 (Trypanosoma cruzi [10]): 6.3 µM | Activity (Trypanosoma cruzi [11]): 48% | selectivity ratio [12]: 8.82 | CC50 [13]: 100 µM

O=[N+]([O-])c1ccc(/C=N/NS(=O)(=O)c2ccccc2)cc1
LC50 (Trypanosoma cruzi [5]): 26.3 µM | LC50 (Trypanosoma cruzi [6]): 4.68 µM

CNCCOCCn1nc(OCc2ccccc2)c2cc([N+](=O)[O-])ccc21
selectivity ratio [1]: 21.6 | CC50 [2]: 197 µM | IC50 (Leishmania infantum): 9.1 µM

COc1cc(CSc2nnc(-c3ncc([N+](=O)[O-])n3C)s2)cc(OC)c1OC
selectivity ratio [14]: 240 | CC50 [15]: 19.4 µg/mL (≈ 45.9 µM) | IC50 (Leishmania donovani [16]): 0.081 µg/mL (≈ 0.191 µM)

Cn1cnc([N+](=O)[O-])c1-c1nnc(N)[nH]1
IC50 (Trypanosoma cruzi [17]): 38.6 µM

COc1nn(CCN)c2ccc([N+](=O)[O-])cc12
IC50 (Leishmania braziliensis): 8.1 µM | selectivity ratio [1]: 140 | selectivity ratio [18]: 60 | CC50 [2]: 489 µM | IC50 (Leishmania infantum): 3.5 µM

CCC(=O)N(/N=C/c1ccccc1[N+](=O)[O-])S(=O)(=O)c1ccccc1
LC50 (Trypanosoma cruzi [5]): 68.1 µM | LC50 (Trypanosoma cruzi [6]): 0.61 µM

O=C(Cn1cccc1[N+](=O)[O-])Nc1cccc(C(F)(F)F)c1
EC50 (Trypanosoma cruzi [3]): 3.6 µM | CC50 [4]: 156 µM

O=[N+]([O-])c1ccc2c(c1)c(Oc1ccccc1)nn2CCBr
IC50 (Leishmania donovani [19]): 1.6 µM | selectivity ratio [20]: 120 | CC50 [2]: 588 µM

Cn1c([N+](=O)[O-])cnc1-c1nnc(NC(=O)C(F)(F)F)s1
IC50 (Trypanosoma cruzi [7]): 31.2 µM | IC50 (Trypanosoma cruzi [8]): 34.2 µM

O=[N+]([O-])c1ccc(/C=N/N=c2\[nH]nc(Cl)c3ccccc23)s1
EC50 (Trypanosoma cruzi [10]): 7.2 µM | Activity (Trypanosoma cruzi [11]): 54% | selectivity ratio [12]: 5.14 | CC50 [13]: 37 µM
